Measurements reported in patent US11739101B2, “Bifunctional degraders of hematopoietic progenitor kinase and therapeutic uses thereof” (Nurix Therapeutics, Inc., priority 2020, dated 2023).

The compounds below were run against T1, HPK1 (Homo sapiens, UniProt Q92918) (assay: HPK1 Cellular HiBiT Degradation Assay). Details: HiBiT-tagged HPK1 Jurkat cells, 24 hours, 10 uM to 0.1 nM; Dmax = 100 minus lowest % HPK1 remaining vs DMSO vehicle.
T1 construct: A HiBiT tag was introduced by CRISPR on the N terminus of HPK1 in Jurkat cells; host or cells: Jurkat (ATCC TIB-152), monoclonal CRISPR HiBiT knock-in line
T1 sequence (Q92918 whole entry): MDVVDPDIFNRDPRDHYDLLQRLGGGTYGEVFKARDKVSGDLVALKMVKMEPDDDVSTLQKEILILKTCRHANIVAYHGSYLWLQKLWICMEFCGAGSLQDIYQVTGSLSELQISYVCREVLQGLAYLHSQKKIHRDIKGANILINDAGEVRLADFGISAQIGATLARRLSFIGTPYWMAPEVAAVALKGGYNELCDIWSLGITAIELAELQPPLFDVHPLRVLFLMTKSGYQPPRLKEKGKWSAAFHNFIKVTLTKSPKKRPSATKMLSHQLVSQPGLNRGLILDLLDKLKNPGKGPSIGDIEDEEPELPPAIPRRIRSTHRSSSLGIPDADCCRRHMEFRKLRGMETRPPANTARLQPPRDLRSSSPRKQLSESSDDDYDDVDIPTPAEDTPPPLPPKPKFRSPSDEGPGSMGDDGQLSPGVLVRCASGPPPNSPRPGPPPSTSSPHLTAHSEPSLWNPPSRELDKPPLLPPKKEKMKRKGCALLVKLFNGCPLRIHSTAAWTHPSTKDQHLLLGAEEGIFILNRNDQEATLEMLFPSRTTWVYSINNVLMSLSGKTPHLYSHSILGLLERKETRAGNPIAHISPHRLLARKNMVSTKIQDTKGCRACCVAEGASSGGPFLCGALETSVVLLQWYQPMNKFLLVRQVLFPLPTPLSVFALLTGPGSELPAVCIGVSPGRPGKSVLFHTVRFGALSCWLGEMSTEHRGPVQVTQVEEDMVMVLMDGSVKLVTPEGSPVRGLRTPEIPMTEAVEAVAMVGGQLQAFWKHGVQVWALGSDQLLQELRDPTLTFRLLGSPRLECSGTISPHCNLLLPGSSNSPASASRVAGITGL
Assay type: cell-based
How it was run: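 Jurkat cells with CRISPR N-terminal HiBiT-tagged HPK1 were exposed to an 11-point 3.16-fold dilution series, 10 uM to 0.1 nM final, for 24 hours at 37° C./5% CO2. HPK1 was read by HiBiT lytic luminescence against DMSO as 100% and parental cells as background. Dmax is 100 minus the lowest % remaining from a four-parameter fit, with a parallel CellTiter-Glo viability check.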

Q: How did the Dmax turn out when `Cc1cc(F)c(Nc2nc(-c3ccc4c(c3)N([C@H]3C[C@@H](N5CCCCC5)C3)C(=O)C43CCN(C(=O)CCCCCCCOc4cc(-c5scnc5C)ccc4CNC(=O)[C@@H]4C[C@@H](O)CN4C(=O)[C@@H](NC(=O)C4(F)CC4)C(C)(C)C)CC3)cc3ncn(C(C)C)c23)cc1C(=O)NC(C)C` [Example 13, (2S,4R)—N-(2-((8-(6-(4-((2-fluoro-5-(isopropylcarbamoyl)-4-methylphenyl)amino)-3-isopropyl-3H-imidazo[4,5-c]pyridin-6-yl)-2-oxo-1-((1s,3s)-3-(piperidin-1-yl)cyclobutyl)spiro[indoline-3,4′-piperidin]-1′-yl)-8-oxooctyl)oxy)-4-(4-methylthiazol-5-yl)benzyl)-1-((S)-2-(1-fluorocyclopropane-1-carboxamido)-3,3-dimethylbutanoyl)-4-hydroxypyrrolidine-2-carboxamide] was run?
A: < 45%

Q: `Cc1cc(F)c(Nc2nc(-c3ccc4c(c3)N([C@H]3C[C@@H](N5CCCCC5)C3)C(=O)C43CCN(C(=O)C4CN(CC5CCN(c6cccc7c6C(=O)N(C6CCC(=O)NC6=O)C7=O)C5)C4)CC3)cc3ncn(C(C)C)c23)cc1C(=O)NC(C)C` (stereo partly drawn) [Example 35, 5-({6-[1′-(1-{[1-{2-[2,6-dioxopiperidin-3-yl]-1,3-dioxo-2,3-dihydro-1H-isoindol-4-yl}pyrrolidin-3-yl]methyl}azetidine-3-carbonyl)-2-oxo-1-[(1s,3s)-3-(piperidin-1-yl)cyclobutyl]-1,2-dihydrospiro[indole-3,4′-piperidin]-6-yl]-3-(propan-2-yl)-3H-imidazo[4,5-c]pyridin-4-yl}amino)-4-fluoro-2-methyl-N-(propan-2-yl)benzamide] was tested. Which Dmax did it give?
A: 45 to 65%

Q: With `Cc1cc(F)c(Nc2nc(-c3ccc4c(c3)N([C@H]3C[C@@H](N5CCCCC5)C3)C(=O)C43CCN(C(=O)C4CN(C(=O)CC5CCN(c6cccc7c6C(=O)N(C6CCC(=O)NC6=O)C7=O)CC5)C4)CC3)cc3ncn(C(C)C)c23)cc1C(=O)NC(C)C` (stereo partly drawn) [Example 34, 5-{[6-(1′-{1-[2-(1-{2-[2,6-dioxopiperidin-3-yl]-1,3-dioxo-2,3-dihydro-1H-isoindol-4-yl}piperidin-4-yl)acetyl]azetidine-3-carbonyl}-2-oxo-1-[(1s,3s)-3-(piperidin-1-yl)cyclobutyl]-1,2-dihydrospiro[indole-3,4′-piperidin]-6-yl)-3-(propan-2-yl)-3H-imidazo[4,5-c]pyridin-4-yl]amino}-4-fluoro-2-methyl-N-(propan-2-yl)benzamide] as the compound, how does the Dmax read?
A: < 45%

Q: Which Dmax does the source give for `Cc1cc(F)c(Nc2nc(-c3ccc4c(c3)N([C@H]3C[C@@H](N5CCCCC5)C3)C(=O)C43CCN(C(=O)[C@H]4CC[C@H](C(=O)N5CCC(Nc6cccc7c6C(=O)N(C6CCC(=O)NC6=O)C7=O)CC5)CC4)CC3)cc3ncn(C(C)C)c23)cc1C(=O)NC(C)C` (stereo partly drawn) [Example 51, 4-fluoro-2-methyl-5-[(6-{2-oxo-1′-[(R,4R)-4-[4-({2-[2,6-dioxopiperidin-3-yl]-1,3-dioxo-2,3-dihydro-1H-isoindol-4-yl}amino)piperidine-1-carbonyl]cyclohexanecarbonyl]-1-[(1s,3s)-3-(piperidin-1-yl)cyclobutyl]-1,2-dihydrospiro[indole-3,4′-piperidin]-6-yl}-3-(propan-2-yl)-3H-imidazo[4,5-c]pyridin-4-yl)amino]-N-(propan-2-yl)benzamide] here?
A: 45 to 65%

Q: `Cc1cc(F)c(Nc2nc(-c3ccc4c(c3)N([C@H]3C[C@@H](N5CCCCC5)C3)C(=O)C43CCN(C(=O)C4CCN(C(=O)C5CCN(c6cccc7c6C(=O)N(C6CCC(=O)NC6=O)C7=O)CC5)C4)CC3)cc3ncn(C(C)C)c23)cc1C(=O)NC(C)C` (mixture of isomers) [Example 25, 5-[(6-{1′-[1-(1-{2-[(3RS)-2,6-dioxopiperidin-3-yl]-1,3-dioxo-2,3-dihydro-1H-isoindol-4-yl}piperidine-4-carbonyl)pyrrolidine-3-carbonyl]-2-oxo-1-[(1s,3s)-3-(piperidin-1-yl)cyclobutyl]-1,2-dihydrospiro[indole-3,4′-piperidin]-6-yl}-3-(propan-2-yl)-3H-imidazo[4,5-c]pyridin-4-yl)amino]-4-fluoro-2-methyl-N-(propan-2-yl)benzamide] was tested. Which Dmax did it give?
A: 45 to 65%

Q: For `Cc1cc(F)c(Nc2nc(-c3ccc4c(c3)N([C@H]3C[C@@H](N5CCCCC5)C3)C(=O)C43CCN(C(=O)c4ccc(N5CCN(c6ccc7c(c6)C(=O)N(C6CCC(=O)NC6=O)C7=O)CC5)nc4)CC3)cc3ncn(C(C)C)c23)cc1C(=O)NC(C)C` (stereo partly drawn) [Example 85, 5-((6-(1′-(6-(4-(2-(2,6-dioxopiperidin-3-yl)-1,3-dioxoisoindolin-5-yl)piperazin-1-yl)nicotinoyl)-2-oxo-1-((1s,3s)-3-(piperidin-1-yl)cyclobutyl)spiro[indoline-3,4′-piperidin]-6-yl)-3-isopropyl-3H-imidazo[4,5-c]pyridin-4-yl)amino)-4-fluoro-N-isopropyl-2-methylbenzamide], which Dmax is on record?
A: < 45%

Q: `Cc1cc(F)c(Nc2nc(-c3ccc4c(c3)N([C@H]3C[C@@H](N5CCCCC5)C3)C(=O)C43CCN(C(=O)c4ccc(OC5CCN(c6cccc7c6C(=O)N(C6CCC(=O)NC6=O)C7=O)CC5)cc4)CC3)cc3ncn(C(C)C)c23)cc1C(=O)NC(C)C` (stereo partly drawn) [Example 63, 5-{[6-(1′-{4-[(1-{2-[2,6-dioxopiperidin-3-yl]-1,3-dioxo-2,3-dihydro-1H-isoindol-4-yl}piperidin-4-yl)oxy]benzoyl}-2-oxo-1-[(1s,3s)-3-(piperidin-1-yl)cyclobutyl]-1,2-dihydrospiro[indole-3,4′-piperidin]-6-yl)-3-(propan-2-yl)-3H-imidazo[4,5-c]pyridin-4-yl]amino}-4-fluoro-2-methyl-N-(propan-2-yl)benzamide] was tested. Which Dmax did it give?
A: > 65%

Q: With `Cc1cc(F)c(Nc2nc(-c3ccc4c(c3)N([C@H]3C[C@@H](N5CCCCC5)C3)C(=O)C43CCN(C(=O)C4CCN(Cc5ccc(C(=O)NCCNc6cccc7c6C(=O)N(C6CCC(=O)NC6=O)C7=O)nc5)CC4)CC3)cc3ncn(C(C)C)c23)cc1C(=O)NC(C)C` (stereo partly drawn) [Example 89, N-(2-{[2-(2,6-dioxopiperidin-3-yl)-1,3-dioxoisoindol-4-yl]amino}ethyl)-5-[(4-{[6-(4-{[2-fluoro-5-(isopropylcarbamoyl)-4-methylphenyl]amino}-3-isopropylimidazo[4,5-c]pyridin-6-yl)-2-oxo-1-[(s,3s)-3-(piperidin-1-yl)cyclobutyl]spiro[indole-3,4′-piperidin]-1′-yl]carbonyl}piperidin-1-yl)methyl]pyridine-2-carboxamide] as the compound, how does the Dmax read?
A: > 65%

Q: How did the Dmax turn out when `Cc1cc(F)c(Nc2nc(-c3ccc4c(c3)N(C3CC(N5CCCCC5)C3)C(=O)C43CCN(C(=O)CN4CC5(CCN(c6ccc7c(c6)C(=O)N(C6CCC(=O)NC6=O)C7=O)CC5)C4)CC3)cc3ncn(C(C)C)c23)cc1C(=O)NC(C)C` (stereo not drawn) [Example 28, 5-[(6-{1′-[2-(7-{2-[2,6-dioxopiperidin-3-yl]-1,3-dioxo-2,3-dihydro-1H-isoindol-5-yl}-2,7-diazaspiro[3.5]nonan-2-yl)acetyl]-2-oxo-1-[(1s,3s)-3-(piperidin-1-yl)cyclobutyl]-1,2-dihydrospiro[indole-3,4′-piperidin]-6-yl}-3-(propan-2-yl)-3H-imidazo[4,5-c]pyridin-4-yl)amino]-4-fluoro-2-methyl-N-(propan-2-yl)benzamide] was run?
A: < 45%

Q: With `CC(=O)N1CCC2(CC1)C(=O)N([C@H]1C[C@@H](N3CCC[C@@H](C(=O)NCCCCCCCCCNc4ccc5c(c4)C(=O)N(C4CCC(=O)NC4=O)C5=O)C3)C1)c1cc(-c3cc4ncn(C(C)C)c4c(Nc4cc(C(=O)NC(C)C)c(C)cc4F)n3)ccc12` (stereo partly drawn) [Example 15, (3R)-1-((1s,3s)-3-(1′-acetyl-6-(4-((2-fluoro-5-(isopropylcarbamoyl)-4-methylphenyl)amino)-3-isopropyl-3H-imidazo[4,5-c]pyridin-6-yl)-2-oxospiro[indoline-3,4′-piperidin]-1-yl)cyclobutyl)-N-(9-((2-(2,6-dioxopiperidin-3-yl)-1,3-dioxoisoindolin-5-yl)amino)nonyl)piperidine-3-carboxamide] as the compound, how does the Dmax read?
A: < 45%

Q: For `Cc1cc(F)c(Nc2nc(-c3ccc4c(c3)N([C@H]3C[C@@H](N5CCCCC5)C3)C(=O)C43CCN(C(=O)C4CCN(CC5CCN(c6ccc7c(c6)C(=O)N(C6CCC(=O)NC6=O)C7=O)CC5)CC4)CC3)cc3ncn(C(C)C)c23)cc1C(=O)NC(C)C` (stereo partly drawn) [Example 45, 5-{[6-(1′-{1-[(1-{2-[2,6-dioxopiperidin-3-yl]-1,3-dioxo-2,3-dihydro-1H-isoindol-5-yl}piperidin-4-yl)methyl]piperidine-4-carbonyl}-2-oxo-1-[(1s,3s)-3-(piperidin-1-yl)cyclobutyl]-1,2-dihydrospiro[indole-3,4′-piperidin]-6-yl)-3-(propan-2-yl)-3H-imidazo[4,5-c]pyridin-4-yl]amino}-4-fluoro-2-methyl-N-(propan-2-yl)benzamide], which Dmax is on record?
A: > 65%

Q: `Cc1cc(F)c(Nc2nc(-c3ccc4c(c3)N([C@H]3C[C@@H](N5CCCCC5)C3)C(=O)C43CCN(C(=O)CCCCCCCCCOc4cc(-c5scnc5C)ccc4CNC(=O)[C@@H]4C[C@@H](O)CN4C(=O)[C@@H](NC(=O)C4(F)CC4)C(C)(C)C)CC3)cc3ncn(C(C)C)c23)cc1C(=O)NC(C)C` [Example 6, (2S,4R)—N-(2-((10-(6-(4-((2-fluoro-5-(isopropylcarbamoyl)-4-methylphenyl)amino)-3-isopropyl-3H-imidazo[4,5-c]pyridin-6-yl)-2-oxo-1-((1s,3s)-3-(piperidin-1-yl)cyclobutyl)spiro[indoline-3,4′-piperidin]-1′-yl)-10-oxodecyl)oxy)-4-(4-methylthiazol-5-yl)benzyl)-1-((S)-2-(1-fluorocyclopropane-1-carboxamido)-3,3-dimethylbutanoyl)-4-hydroxypyrrolidine-2-carboxamide] was tested. Which Dmax did it give?
A: < 45%
